This is an account of results in US10694743B2, “Agricultural compositions with reduced aquatic toxicity” (priority 2014, dated 2020).

Entries after “also recorded” stand apart in the source; their conditions may differ.

The test system of data set [1] is wild oat (AVEFA). The data set can be described thus: Agricultural field test of glyphosate with adjuvant, visual weed control (second trial). To be noted: glyphosate 480 g.a.e./ha; for AVEFA 9 DAT, %: 0-100, 9 DAT; for AVEFA 23 DAT, %: 0-100, 23 DAT. The data set is classed as in vivo, Avena fatua. The procedure: (§1) Amine ethoxylates are evaluated as adjuvants for glyphosate formulations in agricultural field tests performed by an independent laboratory. The weed species included in the evaluation are common lambsquarters (CHEAL), barnyard grass (ECHCG), and wild oat (AVEFA).
(§2) Two field trials are conducted in the Netherlands during the summer. In the first trial, common lambsquarters (CHEAL, Chenopodium album), barnyard grass (ECHCG, Echinochloa crus-galls) and wild oat (AVEFA, Avena fatua) are sown in three distinct zones of the same size in a 4×2 m field plot. Other emerging weed species are removed by hand as needed. Five weeks after sowing, the plots are treated and weed control is visually assessed 8, 14, and 22 days after treatment (DAT). Visual assessment is used with a scale of 0=no effect to 100=complete kill. Growth reduction is included in this assessment. On the day of treatment, ECHCG has more than six leaves, and CHEAL has at least six unfolded leaves. A second test with AVEFA alone is conducted because the level of emergence was too low in the first test. (Results from the first AVEFA testing are not included.) AVEFA is at the 3-leaf stage on the day of treatment. The plots are visually evaluated 9 and 23 days after treatment.
(§3) A glyphosate potassium solution (540 g.a.e./L) without surfactants or other adjuvant chemicals is used to prepare solutions that contain the adjuvants listed in Table 2A. Roundup® Powermax® (540 g.a.e./L, product of Monsanto) is used as a control. The glyphosate solutions are diluted with deionized water such that application at a water volume of 80 L/ha results in a glyphosate application rate of 480 g.a.e./ha. Adjuvants are included in the diluted glyphosate solution at a ratio of 160 g adjuvant per 540 g.a.e. glyphosate. In this way, commercial glyphosate products containing glyphosate at 540 g.a.e./L and adjuvant at 160 g/L are simulated.
(§4) Glyphosate solutions are applied with a backpack sprayer having a TeeJet® TP8003E nozzle set to deliver 80 L/ha at 150 kPa. The application with the first trial started early in the morning in mid-summer. Conditions: sunny skies, relative humidity 80%, temperature 18° C., little or no wind, wet soil, damp foliage. Application of AVEFA trial starts in early autumn late in the afternoon. Conditions: partly cloudy, relative humidity 79%, temperature 15° C., little or no wind, wet soil, dry foliage.

In data set [2] the test system is common lambsquarters (CHEAL). Put plainly: Agricultural field test of glyphosate with adjuvant, visual weed control. The data set is classed as in vivo, Chenopodium album. The settings on record: for CHEAL control relative to the control: 8 and 14 DAT; for CHEAL control relative to Roundup Powermax / CHEAL 22 DAT, %: 22 DAT; for CHEAL 14 DAT, % / CHEAL 22 DAT, % / CHEAL 8 DAT, %: visual weed control, glyphosate 480 g.a.e./ha; for CHEAL 14 DAT, % / CHEAL 22 DAT, %: 0-100; for CHEAL 8 DAT, %: 0=no effect to 100=complete kill, 160 g adjuvant per 540 g.a.e. As for the experimental part:
as §1, §2, §3, §4

In data set [3] the test system is barnyard grass (ECHCG). The data set is described as above. It counts as in vivo, Echinochloa crus-galls. To be noted: for ECHCG control relative to Roundup Powermax / ECHCG 22 DAT, %: 22 DAT; for ECHCG 8 DAT, % / ECHCG 14 DAT, % / ECHCG 22 DAT, %: visual weed control, 0-100, glyphosate 480 g.a.e./ha. As for the experimental part:
as §1, §2, §3, §4

Data set [4] concerns common lambsquarters (CHEAL), barnyard grass (ECHCG), and wild oat (AVEFA). The data set can be described thus: Agricultural field testing, overall performance over the weed species. To be noted: all weed species, glyphosate 480 g.a.e./ha. The data set is classed as in vivo. As for the experimental part: as §1
as §2, with “after treatment. […]” for “after treatment.”

Data set [5] relates to Daphnia magna. Put plainly: Aquatic toxicity screen, Daphnia sp. Acute Immobilization Test (OECD 202 / OPPTS 850.1010). To be noted: for 48-Hour EC50: 48-hour exposure, static test conditions. The procedure:
The study is performed based on procedures in the OECD Guidelines for Testing of Chemicals, Guideline 202: Daphnia sp., Acute Immobilization Test, and U.S. EPA Guidelines, OPPTS Number 850.1010: Aquatic Invertebrate Acute Toxicity Test. The half maximal effective concentration (EC50) after 48 hours is reported below.

As to “C11 saturated fatty amine 2EO ethoxylate [Comparative Agent D, reference compound]”, in data set [1], the “AVEFA 9 DAT, %” value is given as 82.5% and the “AVEFA 23 DAT, %” value is 100%. For the same substance, in data set [2], the “CHEAL control relative to the control” value is “outperform the control”; the “CHEAL control relative to Roundup Powermax” value is given as “same performance as Roundup Powermax”; the “CHEAL 14 DAT, %” value is recorded as 91.3%; the “CHEAL 22 DAT, %” value is recorded as 92.5%. Moreover, the “CHEAL 8 DAT, %” value in data set [2] was 75.0%. In data set [3], the “ECHCG control relative to Roundup Powermax” value was “outperform Roundup Powermax”; the “ECHCG 8 DAT, %” value is recorded as 97.5%; the “ECHCG 14 DAT, %” value is on record as 91.3%; the “ECHCG 22 DAT, %” value came out at 100%.

Turning to “C11 unsaturated fatty amine 2EO ethoxylate [Agent B]”, in data set [1], the “AVEFA 9 DAT, %” value is recorded as 87.5% and the “AVEFA 23 DAT, %” value was determined as 100%. Also, in data set [2], the “CHEAL control relative to the control” value is given as “outperform the control”; the “CHEAL control relative to Roundup Powermax” value is recorded as “same performance as Roundup Powermax”; the “CHEAL 14 DAT, %” value was found to be 97.7%; the “CHEAL 22 DAT, %” value was 96.7%. The “CHEAL 8 DAT, %” value in data set [2] was 86.7%. Further, in data set [3], the “ECHCG control relative to Roundup Powermax” value is reported as “outperform Roundup Powermax; also recorded: top performer”; the “ECHCG 8 DAT, %” value was 100%; the “ECHCG 14 DAT, %” value was 97.7%; the “ECHCG 22 DAT, %” value amounted to 100%. The “overall field performance as glyphosate adjuvant” value in data set [4] is “best overall performance of the group”. In addition, in data set [4] (listed as C11 unsaturated 2EO ethoxylate), the “overall field performance as glyphosate adjuvant” value was “outperforms its saturated analog”.

For “saturated C11 fatty amine 5EO ethoxylate [Saturated C11 amine 5EO ethoxylate]”, the “48-Hour EC50” value in data set [5] is 3.3 µg/mL. Moreover, the “aquatic toxicity rating” value in data set [5] (in vivo) is “moderately toxic”.

“unsaturated C11 fatty amine 5EO ethoxylate [Unsaturated C11 amine 5 EO ethoxylate]”: the “48-Hour EC50” value in data set [5] is 20 µg/mL.
